According to PubChem BioAssay AID1259411 (Chemical Carcinogenesis Research Information System (CCRIS), 2018):
Calls of active or inactive are those of the source. No rule for the calls is given here.

Tested on: rodent carcinogenicity bioassays, tumor incidence
Assay: CCRIS carcinogenicity studies
Outline: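 NCI-built, expert-reviewed records of carcinogenicity and related test outcomes (mutagenicity, tumor promotion/inhibition) compiled from published and report sources, historical span 1985-2011, not updated.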

Measured: carcinogen call

COP(=S)(OC)Oc1ccc(SC)c(C)c1
inactive: Species: MOUSE, Strain/Sex: B6C3F1/FEMALE, Route: ORAL, Dose: 0, 10, 20 PPM IN DIET, Dose: 0, 10, 20 PPM IN DIET inactive; negative | Species: Mouse, Strain/Sex: B6C3F1/Female (60/group), Route: Oral, Dose: 0, 0.1, 1, 5, 25 ppm in diet for up to 2 yr, study duration 2 yr, Dose: 0, 0.1, 1, 5, 25 ppm in diet for up to 2 yr, study duration 2 yr inactive; negative | Species: Mouse, Strain/Sex: B6C3F1/Male (60/group), Route: Oral, Dose: 0, 0.1, 1, 5, 25 ppm in diet for up to 2 yr, study duration 2 yr, Dose: 0, 0.1, 1, 5, 25 ppm in diet for up to 2 yr, study duration 2 yr inactive; negative | Species: RAT, Strain/Sex: F344/MALE, Route: ORAL, Dose: 0, 10, 20 PPM IN DIET, Dose: 0, 10, 20 PPM IN DIET inactive; negative | Species: Rat, Strain/Sex: Fischer 344/Female (50/Group), Route: Oral, Dose: 0 (corn oil), 5, 20, 100 ppm in diet for 2 yr, study duration 2 yr, Dose: 0 (corn oil), 5, 20, 100 ppm in diet for 2 yr, study duration 2 yr inactive; negative | Species: Rat, Strain/Sex: Fischer 344/Male (50/Group), Route: Oral, Dose: 0 (corn oil), 5, 20, 100 ppm in diet for 2 yr, study duration 2 yr, Dose: 0 (corn oil), 5, 20, 100 ppm in diet for 2 yr, study duration 2 yr inactive; negative

CBr
inactive: Species: DOG, Strain/Sex: BEAGLE/FEMALE, Route: ORAL, Dose: 0, 0.07, 0.12, 0.27 MG/KG/D IN DIET FOR 1 YR (STUDY DURATION: 1 YR), Dose: 0, 0.07, 0.12, 0.27 MG/KG/D IN DIET FOR 1 YR (STUDY DURATION: 1 YR) inactive; negative | Species: DOG, Strain/Sex: BEAGLE/MALE, Route: ORAL, Dose: 0, 0.06, 0.13, 0.28 MG/KG/D IN DIET FOR 1 YR (STUDY DURATION: 1 YR), Dose: 0, 0.06, 0.13, 0.28 MG/KG/D IN DIET FOR 1 YR (STUDY DURATION: 1 YR) inactive; negative | Species: MOUSE, Strain/Sex: B6C3F1/FEMALE, Route: INHALATION, Dose: 0, 10, 33, 100 PPM 6 HR/D 5 D/WK FOR UP TO 103 WK, DOSING IN 100 PPM GROUP DISCONTINUED AFTER 20 WK (STUDY DURATION: 104, Dose: 0, 10, 33, 100 PPM 6 HR/D 5 D/WK FOR UP TO 103 WK, DOSING IN 100 PPM GROUP DISCONTINUED AFTER 20 WK (STUDY DURATION: 104 inactive; negative | Species: MOUSE, Strain/Sex: B6C3F1/MALE, Route: INHALATION, Dose: 0, 10, 33, 100 PPM 6 HR/D 5 D/WK FOR UP TO 103 WK, DOSING IN 100 PPM GROUP DISCONTINUED AFTER 20 WK (STUDY DURATION: 104, Dose: 0, 10, 33, 100 PPM 6 HR/D 5 D/WK FOR UP TO 103 WK, DOSING IN 100 PPM GROUP DISCONTINUED AFTER 20 WK (STUDY DURATION: 104 inactive; negative | Species: MOUSE, Strain/Sex: BDF1/FEMALE, Route: INHALATION, Dose: 0, 4, 16, 64 PPM 6 HR/D 5 D/WK FOR 104 WK (STUDY DURATION: 105 WK), Dose: 0, 4, 16, 64 PPM 6 HR/D 5 D/WK FOR 104 WK (STUDY DURATION: 105 WK) inactive; negative | Species: MOUSE, Strain/Sex: BDF1/MALE, Route: INHALATION, Dose: 0, 4, 16, 64 PPM 6 HR/D 5 D/WK FOR 104 WK (STUDY DURATION: 105 WK), Dose: 0, 4, 16, 64 PPM 6 HR/D 5 D/WK FOR 104 WK (STUDY DURATION: 105 WK) inactive; negative | Species: RAT, Strain/Sex: F344/FEMALE, Route: INHALATION, Dose: 0, 4, 20, 100 PPM 6 HR/D 5 D/WK FOR 104 WK (STUDY DURATION: 105 WK), Dose: 0, 4, 20, 100 PPM 6 HR/D 5 D/WK FOR 104 WK (STUDY DURATION: 105 WK) inactive; negative | Species: RAT, Strain/Sex: F344/FEMALE, Route: ORAL inactive; negative | Species: RAT, Strain/Sex: F344/MALE, Route: INHALATION, Dose: 0, 4, 20, 100 PPM 6 HR/D 5 D/WK FOR 104 WK (STUDY DURATION: 105 WK), Dose: 0, 4, 20, 100 PPM 6 HR/D 5 D/WK FOR 104 WK (STUDY DURATION: 105 WK) inactive; negative | Species: RAT, Strain/Sex: F344/MALE, Route: ORAL inactive; negative | Species: RAT, Strain/Sex: WISTAR/FEMALE, Route: INHALATION, Dose: 0, 3, 30, 90 PPM 6 HR/D 5 D/WK FOR 29 MO (STUDY DURATION: 29 MO), Dose: 0, 3, 30, 90 PPM 6 HR/D 5 D/WK FOR 29 MO (STUDY DURATION: 29 MO) inactive; negative | Species: RAT, Strain/Sex: WISTAR/MALE, Route: INHALATION, Dose: 0, 3, 30, 90 PPM 6 HR/D 5 D/WK FOR 29 MO (STUDY DURATION: 29 MO), Dose: 0, 3, 30, 90 PPM 6 HR/D 5 D/WK FOR 29 MO (STUDY DURATION: 29 MO) inactive; negative
active: Species: RAT, Strain/Sex: WISTAR/FEMALE, Route: GAVAGE, Dose: 0.4, 2, 10, 50 MG/KG IN ARACHIS OIL 5/WK FOR 13 WK, Dose: 0.4, 2, 10, 50 MG/KG IN ARACHIS OIL 5/WK FOR 13 WK, Tumor Site: Type of Lesion: FORESTOMACH: CARCINOMA active; positive | Species: RAT, Strain/Sex: WISTAR/MALE, Route: GAVAGE, Dose: 0.4, 2, 10, 50 MG/KG IN ARACHIS OIL 5/WK FOR 13 WK, Dose: 0.4, 2, 10, 50 MG/KG IN ARACHIS OIL 5/WK FOR 13 WK, Tumor Site: Type of Lesion: FORESTOMACH: PAPILLOMA, CARCINOMA active; positive

Nc1c(Br)cc(Br)c2c1C(=O)c1ccccc1C2=O
active: Species: MOUSE, Strain/Sex: B6C3F1/FEMALE, Route: ORAL, Dose: 0, 10000, 20000 PPM IN DIET FOR 104 WK (STUDY DURATION: 106 WK), Dose: 0, 10000, 20000 PPM IN DIET FOR 104 WK (STUDY DURATION: 106 WK), Tumor Site: Type of Lesion: LIVER: HEPATOCELLULAR ADENOMA, HEPATOCELLULAR CARCINOMA, FORESTOMACH: SQUAMOUS CELL ADENOMA, SQUAMOUS CELL CARCINOMA, LU, Tumor Site: Type of Lesion: LIVER: HEPATOCELLULAR ADENOMA, HEPATOCELLULAR CARCINOMA, FORESTOMACH: SQUAMOUS CELL ADENOMA, SQUAMOUS CELL CARCINOMA, LU active; positive | Species: MOUSE, Strain/Sex: B6C3F1/MALE, Route: ORAL, Dose: 0, 10000, 20000 PPM IN DIET FOR 104 WK (STUDY DURATION: 106 WK), Dose: 0, 10000, 20000 PPM IN DIET FOR 104 WK (STUDY DURATION: 106 WK), Tumor Site: Type of Lesion: LIVER: HEPATOCELLULAR ADENOMA, HEPATOCELLULAR CARCINOMA, HEPATOBLASTOMA, FORESTOMACH: SQUAMOUS CELL PAPILLOMA, SQUAMOUS active; positive | Species: RAT, Strain/Sex: F344/FEMALE, Route: ORAL, Dose: 0, 2000, 5000, 10000 PPM IN DIET FOR UP TO 104 WK (STUDY DURATION: 106 WK), Dose: 0, 2000, 5000, 10000 PPM IN DIET FOR UP TO 104 WK (STUDY DURATION: 106 WK), Tumor Site: Type of Lesion: LIVER: HEPATOCELLULAR ADENOMA, HEPATOCELLULAR CARCINOMA, HEPATOCHOLANGIOCARCINOMA, LARGE INTESTINE: ADENOMA, CARCINOMA;, Tumor Site: Type of Lesion: LIVER: HEPATOCELLULAR ADENOMA, HEPATOCELLULAR CARCINOMA, HEPATOCHOLANGIOCARCINOMA, LARGE INTESTINE: ADENOMA, CARCINOMA active; positive | Species: RAT, Strain/Sex: F344/MALE, Route: ORAL, Dose: 0, 2000, 5000, 10000 PPM IN DIET FOR UP TO 104 WK (STUDY DURATION: 106 WK), Dose: 0, 2000, 5000, 10000 PPM IN DIET FOR UP TO 104 WK (STUDY DURATION: 106 WK), Tumor Site: Type of Lesion: LIVER: HEPATOCELLULAR ADENOMA, HEPATOCELLULAR CARCINOMA, HEPATOCHOLANGIOCARCINOMA, LARGE INTESTINE: ADENOMA, CARCINOMA;, Tumor Site: Type of Lesion: LIVER: HEPATOCELLULAR ADENOMA, HEPATOCELLULAR CARCINOMA, HEPATOCHOLANGIOCARCINOMA, LARGE INTESTINE: ADENOMA, CARCINOMA active; positive

C=CC1CC=CCC1 (configuration not stated)
active: Species: MOUSE, Strain/Sex: B6C3F1/FEMALE, Route: GAVAGE, Dose: 0, 200, 400 MG/KG IN CORN OIL 5 D/WK FOR 103 WK, Dose: 0, 200, 400 MG/KG IN CORN OIL 5 D/WK FOR 103 WK, Tumor Site: Type of Lesion: OVARIES: BENIGN MIXED TUMOR, GRANULOSA CELL TUMOR, GRANULOSA CELL TUMOR OR CARCINOMA active; positive

CN1C(C(=O)Nc2ccccn2)=C(O)c2sc(Cl)cc2S1(=O)=O
inactive: Species: RAT, Strain/Sex: SPRAGUE-DAWLEY/FEMALE, Route: GAVAGE, Dose: 0, 0.0625, 0.125, 0.250 MG/KG BW/D FOR 104 WK, HIGH DOSE REDUCED TO 0.0200 MG/KG FROM STUDY WK 42 TO 50 THEN TO 0.160 MG, Dose: 0, 0.0625, 0.125, 0.250 MG/KG BW/D FOR 104 WK, HIGH DOSE REDUCED TO 0.0200 MG/KG FROM STUDY WK 42 TO 50 THEN TO 0.160 MG inactive; negative | Species: RAT, Strain/Sex: SPRAGUE-DAWLEY/MALE, Route: GAVAGE, Dose: 0, 0.0625, 0.125, 0.250 MG/KG BW/D FOR 104 WK (STUDY DURATION: 104 WK), Dose: 0, 0.0625, 0.125, 0.250 MG/KG BW/D FOR 104 WK (STUDY DURATION: 104 WK) inactive; negative
